Experimental data published in patent publication US10780145B2, “In situ forming hydrogel and method using same” (Arizona Board of Regents on behalf of Arizona State …, priority 2011, dated 2020).

Tests used:
[1] = Solubility of vancomycin loaded into the polymer solution; assay type: physicochemical; conditions: loaded at 50 mg/mL
Method: To prepare a solution for antibiotic delivery, the materials can be sterilized (such as by ethylene oxide gas sterilization) and then dissolved in 150 mM phosphate buffered saline (pH 7.4). After dissolution of the polymer, drug powder (finely ground) is added directly to the polymer solution and vortex mixed to distribute the drug evenly throughout the solution. The solutions can be stored in a freezer until use and thawed at the time of use. The solution then can be injected, brushed, poured, sprayed, or otherwise administered as a liquid at the desired site. The solution can also be allowed to warm to above its initial LCST and then implanted as a soft hydrogel at the desired site. Examples of desired sites for delivery of this material might include the surface of a joint prosthesis, the intramedullary canal before implantation of a prosthesis, an infected area, or any location deemed to have a risk of future infection. An example formulation might be a 30 wt % polymer solution with approximately 50 mg vancomycin hydrochloride loaded per mL of polymer solution.
FIG. 7 graphically illustrates a fraction of loaded vancomycin released from Applicants' injectable and degradable terpolymer I based gels comprising poly(NIPAAm-co-DBLA-co-JAAm) gels loaded with either 50 mg or 5 mg per gel.

[2] = Swelling and degradation of gels in excess PBS (pH 7.4) at 37° C.; assay type: physicochemical
Description: The control copolymer comprises […] of JAAm. […] These gels dissolve in approximately 20 weeks.
Gels flow when inverted after 7-10 days and dissolve completely within 2-3 weeks.

Row | Molecule | solubility in polymer solution [1] | Degradation time (37° C., pH 7.4) [2] [weeks]
1 | CN[C@H](CC(C)C)C(=O)N[C@H]1C(=O)N[C@@H](CC(N)=O)C(=O)N[C@H]2C(=O)N[C@H]3C(=O)N[C@H](C(=O)N[C@H](C(=O)O)c4cc(O)cc(O)c4-c4cc3ccc4O)[C@H](O)c3ccc(c(Cl)c3)Oc3cc2cc(c3O[C@@H]2O[C@H](CO)[C@@H](O)[C@H](O)[C@H]2O[C@H]2C[C@](C)(N)[C@H](O)[C@H](C)O2)Oc2ccc(cc2Cl)[C@H]1O [vancomycin] | Some vancomycin is insoluble | –
2 | poly(NIPAAm-co-DBLA) | – | ~20
